Laboratory results from US7915291B2, “Hepatitis C virus inhibitors” (Bristol-Myers Squibb Company, priority 2002, dated 2011).
Where two headings read alike, the source gives them in different places.

How the values were obtained:
[1] = target: HCV NS3/4A protease complex, BMS strain (UniProt P27958, C1454S/C1711G, species not given/STRAIN_BMS); assay: Recombinant HCV NS3/4A protease complex FRET peptide assay (BMS strain); type: biochemical, HCV genotype 1a
Outline: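 Percent inhibition taken from the linear-range fluorescence slope relative to uninhibited control, read kinetically for about 15 min at 25° C. Enzyme (2-3 nM, BMS NS3/4A complex, lysine-tailed, Ni-NTA purified) met compound for 1 min before 2 μM FRET depsipeptide substrate started cleavage.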

[2] = tested on: HCV replicon in Huh7 cells; assay: HCV replicon cell-based assay; parameters: species or system HCV strain 1B; details: Hepatitis C virus, Huh-7; HCV replicon, Huh7 cells; read-out: EC50 range
[3] = NS3/4A BMS strain; read-out: IC50 range

Row | SMILES | IC50 [1, 3] [nM] | EC50 [2] [nM] | IC50 ([1]; read-out: IC50 range; NS3/4A BMS strain) [nM]
1 | C=C[C@@H]1C[C@]1(NC(=O)[C@@H]1C[C@@H](Oc2ncc(OC)c3cc(OC)ccc23)CN1C(=O)[C@@H](NC(=O)OC(C)(C)C)C(C)(C)C)C(=O)NS(=O)(=O)C1CC1 [Compound 279] | < 100 | < 100 | 
2 | C=CC1C[C@]1(NC(=O)[C@@H]1C[C@@H](Oc2cc3c(Cl)nccc3c3c2OCO3)CN1C(=O)[C@@H](NC(=O)OC(C)(C)C)C(C)(C)C)C(=O)NS(=O)(=O)C1CC1 (stereo partly drawn) [Compound 212, BOCNH-P3(L-t-BuGly)-P2[(4R)-(6-Chloro-1,3-dioxa-7aza -cyclopenta[α]naphthalen-4-oxo)-S-proline]-P1(1R,2S VinylAcca)-CONHSO2Cyclopropane] | < 100 | < 100 | 
3 | C=C[C@@H]1C[C@]1(NC(=O)[C@@H]1CC(Oc2nccc3cc(OC)ccc23)CN1C(=O)[C@@H](NC(=O)OC(C)(C)c1ccc(C(F)(F)F)cc1)C(C)(C)C)C(=O)NS(=O)(=O)C1CC1 (stereo partly shown) [Compound 73] | < 100 | 100 to 1000 | 
4 | C=C[C@@H]1C[C@]1(NC(=O)[C@@H]1C[C@@H](Oc2nccc3cc(OC)ccc23)CN1C(=O)[C@@H](NC(=O)N[C@@H](Cc1c[nH]cn1)C(=O)OC)C(C)(C)C)C(=O)NS(=O)(=O)C1CC1 [Compound 147] | < 100 | 1000 to 10000 | 
5 | C=CC1C[C@]1(NC(=O)[C@@H]1C[C@@H](Oc2nnc(OC)c3ccccc23)CN1C(=O)[C@@H](NC(=O)OC(C)(C)C)C(C)(C)C)C(=O)NS(=O)(=O)C1CC1 (stereo partly drawn) [Compound 201, BOCNH-P3(L-t-BuGly)-P2-[(4R)-(4-methoxyphthalazine-1-oxo)-S -proline]-P1(1R,2S VinylAcca)-CONHSO2Cyclopropane] | < 100 | < 100 | 
6 | C=C[C@@H]1C[C@]1(NC(=O)[C@@H]1C[C@@H](Oc2nccc3c(F)c(OC)ccc23)CN1C(=O)[C@@H](NC(=O)OC(C)(C)C)C(C)(C)C)C(=O)NS(=O)(=O)C1CC1 [Compound 274] | < 100 | 100 to 1000 | 
7 | C=C[C@@H]1C[C@]1(NC(=O)[C@@H]1C[C@@H](Oc2nccc3cccc(C)c23)CN1C(=O)[C@@H](NC(=O)OC(C)(C)C)C(C)(C)C)C(=O)NS(=O)(=O)C1CC1 [Compound 263] | 100 to 1000 | 100 to 1000 | 
8 | C=C[C@@H]1C[C@]1(NC(=O)[C@@H]1C[C@@H](Oc2nccc3c(OC)c(Cl)ccc23)CN1C(=O)[C@@H](NC(=O)OC(C)(C)C)C(C)(C)C)C(=O)NS(=O)(=O)C1CC1 [Compound 276] | < 100 | < 100 | 
9 | C=CC1C[C@]1(NC(=O)[C@@H]1C[C@@H](Oc2ccnc3c(F)cccc23)CN1C(=O)[C@@H](NC(=O)OC(C)(C)C)C(C)(C)C)C(=O)NS(=O)(=O)C1CC1 (stereo partly drawn) [Compound 241, BOCNH-P3(L-t-BuGly)-P2[(4R)-(8-fluoroquinoline-4-oxo)-S -proline]-P1(1R,2S VinylAcca)-CONHSO2Cyclopropane] | < 100 | < 100 | 
10 | CC[C@@H]1C[C@]1(NC(=O)[C@@H]1C[C@@H](Oc2ncc(OC)c3ccccc23)CN1C(=O)[C@@H](NC(=O)OC(C)(C)C)C(C)(C)C)C(=O)NS(=O)(=O)C1CC1 [Compound 291] | < 100 | < 100 | 
11 | C=C[C@@H]1C[C@]1(NC(=O)[C@@H]1C[C@@H](Oc2nc(C)cc3ccccc23)CN1C(=O)[C@@H](NC(=O)OC(C)(C)C)C(C)(C)C)C(=O)NS(=O)(=O)C1CC1 [Compound 33] | < 100 | < 100 | 
12 | C=C[C@@H]1C[C@]1(NC(=O)[C@@H]1C[C@@H](Oc2nccc3cc(OC)ccc23)CN1C(=O)[C@H](CC(=O)OC)NC(=O)OC(C)(C)C)C(=O)NS(=O)(=O)C1CC1 [Compound 138] | < 100 | < 100 | 
13 | C=C[C@@H]1C[C@]1(NC(=O)[C@@H]1C[C@@H](Oc2nccc3cc(OC)ccc23)CN1C(=O)[C@@H](NC(=O)OC1CCCC1)[C@H](C)OC)C(=O)NS(=O)(=O)C1CC1 [Compound 104] |  | < 100 | < 100
14 | C=C[C@@H]1C[C@]1(NC(=O)[C@@H]1C[C@@H](Oc2cc(-c3cccc(OC)c3)nc3c(C)noc23)CN1C(=O)[C@@H](NC(=O)OC(C)(C)C)C(C)(C)C)C(=O)NS(=O)(=O)C1CC1 [Compound 5] | < 100 | < 100 | 
